Results taken from ChEMBL document CHEMBL1142481, “Novel 5-HT(1A/1B/1D) receptors antagonists with potent 5-HT reuptake inhibitory activity” (Bioorg Med Chem Lett, 2008).

Columns and labels:
[1] = target: T1, 5-hydroxytryptamine receptor 1A (Homo sapiens, UniProt P08908); assay: Displacement of [3H]5HT from human cloned 5HT1A receptor expressed in CHO cells; assay type: cell-based
T1 sequence (P08908 whole entry): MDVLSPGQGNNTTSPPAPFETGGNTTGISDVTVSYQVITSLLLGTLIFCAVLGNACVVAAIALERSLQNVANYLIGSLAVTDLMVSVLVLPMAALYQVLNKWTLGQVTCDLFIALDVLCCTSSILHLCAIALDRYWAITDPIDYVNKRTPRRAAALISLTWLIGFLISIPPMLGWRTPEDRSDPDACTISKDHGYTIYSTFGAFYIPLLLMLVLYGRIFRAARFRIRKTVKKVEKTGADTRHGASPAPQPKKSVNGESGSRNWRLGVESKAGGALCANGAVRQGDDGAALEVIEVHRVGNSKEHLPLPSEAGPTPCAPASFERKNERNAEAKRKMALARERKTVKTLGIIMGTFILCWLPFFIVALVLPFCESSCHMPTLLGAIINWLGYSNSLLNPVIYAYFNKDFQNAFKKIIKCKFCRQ

[2] = target: T2, 5-hydroxytryptamine receptor 1B (Homo sapiens, UniProt P28222); assay: Displacement of [3H]5HT from human cloned 5HT1B receptor expressed in CHO cells; assay type: cell-based
[3] = target: T3, 5-hydroxytryptamine receptor 1D (Homo sapiens, UniProt P28221); assay: Displacement of [3H]5HT from human cloned 5HT1D receptor expressed in CHO cells; assay type: cell-based
[4] = target: Sodium-dependent serotonin transporter (Rattus norvegicus, UniProt P31652); assay: Inhibition of [3H]5HT reuptake at SERT in rat cortical synaptosomes; assay type: subcellular, Brain
[5] = target: T4, 5-hydroxytryptamine receptor 1A (Homo sapiens) (UniProt P08908); assay: Intrinsic activity at human cloned 5HT1A receptor expressed in CHO cells; assay type: cell-based
T4 sequence (whole entry): T1 sequence (P08908 whole entry)

[6] = target: T2, 5-hydroxytryptamine receptor 1B; assay: Intrinsic activity at human cloned 5HT1B receptor expressed in CHO cells; assay type: cell-based
[7] = Clearance in rat at 3 mg/kg, po; assay type: ADME, organism-based; design: dose 3 mg/kg, route oral; conditions: in vivo
[8] = Cmax in rat at 3 mg/kg, po; assay type: ADME, organism-based; design: dose 3 mg/kg, route oral; conditions: in vivo
[9] = Oral bioavailability in rat at 3 mg/kg; assay type: ADME, organism-based; conditions: in vivo
[10] = target: T3, 5-hydroxytryptamine receptor 1D; assay: Intrinsic activity at human cloned 5HT1D receptor expressed in CHO cells; assay type: cell-based

T2 sequence (P28222 whole entry): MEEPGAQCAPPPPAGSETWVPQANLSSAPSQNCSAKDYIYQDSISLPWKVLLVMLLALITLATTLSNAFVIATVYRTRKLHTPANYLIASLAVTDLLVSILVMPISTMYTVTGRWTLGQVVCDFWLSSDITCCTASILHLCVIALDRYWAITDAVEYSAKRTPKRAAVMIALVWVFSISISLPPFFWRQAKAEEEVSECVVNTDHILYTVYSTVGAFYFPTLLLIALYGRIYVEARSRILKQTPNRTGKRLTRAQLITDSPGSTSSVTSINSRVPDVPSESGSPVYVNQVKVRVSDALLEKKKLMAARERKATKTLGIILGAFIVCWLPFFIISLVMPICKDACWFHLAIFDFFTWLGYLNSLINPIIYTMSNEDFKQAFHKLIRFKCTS
Chain of Sodium-dependent serotonin transporter (P31652 whole entry): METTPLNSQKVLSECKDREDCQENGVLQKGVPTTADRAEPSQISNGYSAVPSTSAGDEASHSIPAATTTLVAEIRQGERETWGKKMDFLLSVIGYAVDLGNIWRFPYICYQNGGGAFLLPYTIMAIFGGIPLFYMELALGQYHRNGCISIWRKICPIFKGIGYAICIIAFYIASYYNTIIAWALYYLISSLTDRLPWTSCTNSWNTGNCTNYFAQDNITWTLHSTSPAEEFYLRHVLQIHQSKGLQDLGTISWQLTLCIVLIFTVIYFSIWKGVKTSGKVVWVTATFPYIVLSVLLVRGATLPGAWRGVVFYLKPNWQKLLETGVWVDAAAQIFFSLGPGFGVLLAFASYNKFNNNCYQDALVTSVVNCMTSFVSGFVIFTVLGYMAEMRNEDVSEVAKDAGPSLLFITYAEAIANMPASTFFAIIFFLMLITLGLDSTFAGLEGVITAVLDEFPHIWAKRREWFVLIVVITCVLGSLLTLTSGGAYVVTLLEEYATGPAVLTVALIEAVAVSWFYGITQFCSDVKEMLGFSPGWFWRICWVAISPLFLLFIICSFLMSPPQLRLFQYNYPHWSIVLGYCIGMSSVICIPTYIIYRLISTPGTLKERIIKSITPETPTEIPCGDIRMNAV
T3 sequence (P28221 whole entry): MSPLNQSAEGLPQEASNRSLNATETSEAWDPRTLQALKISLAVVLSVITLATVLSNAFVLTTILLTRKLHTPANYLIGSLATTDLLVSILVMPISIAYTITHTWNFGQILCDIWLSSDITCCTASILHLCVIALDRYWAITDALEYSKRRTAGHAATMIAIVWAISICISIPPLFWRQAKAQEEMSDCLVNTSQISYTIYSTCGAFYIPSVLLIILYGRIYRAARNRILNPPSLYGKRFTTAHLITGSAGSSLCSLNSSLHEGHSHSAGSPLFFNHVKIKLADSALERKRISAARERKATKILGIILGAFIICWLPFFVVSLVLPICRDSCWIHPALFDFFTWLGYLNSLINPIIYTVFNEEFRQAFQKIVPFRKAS

Structure (SMILES)	Ki [1]	Ki [2]	Ki [3]	Ki [4]	further results
Cc1ccc2c(N3CCN(Cc4ccc5c(c4)NC(=O)CO5)CC3)cccc2n1	631 nM	> 10000 nM	126 nM	794 nM	–
Cc1ccc2c(OCC(C)N3CCC(Cc4ccc5c(c4)NC(=O)CO5)CC3)cccc2n1 (single isomer, unassigned; enantiomer II)	100 nM	100 nM	501 nM	–	–
Cc1ccc2c(OCC(C)N3CCC(Cc4ccc5c(c4)NC(=O)CO5)CC3)cccc2n1 (single isomer, unassigned; enantiomer I)	50.1 nM	39.8 nM	251 nM	–	–
Cc1ccc2c(OCC3CCN(CC(=O)c4ccc5c(c4)NC(=O)CO5)CC3)cccc2n1	501 nM	631 nM	251 nM	794 nM	–
Cc1ccc2c(OC3CCN(CC(=O)c4ccc5c(c4)NC(=O)CO5)CC3)cccc2n1	> 10000 nM	> 5010 nM	2000 nM	–	–
Cc1ccc2c(OCCCN3CC(Oc4ccc5c(c4)NC(=O)CO5)C3)cccc2n1	158 nM	–	–	–	–
Cc1ccc2c(N3CCN(CCc4ccc5c(c4)NC(=O)CO5)CC3)cccc2n1	–	–	–	–	Intrinsic activity [5]: 0.2; Intrinsic activity [6]: 0.1; CL/F [7]: 7 mL/min/kg; Cmax [8]: 360 ng/mL; bioavailability [9]: 72%
Cc1ccc2c(OC3CCN(CCc4ccc5c(c4)NC(=O)CO5)CC3)cccc2n1	316 nM	25.1 nM	6.31 nM	100 nM	–
Cc1ccc2c(OCCN3CC(COc4ccc5c(c4)NC(=O)CO5)C3)cccc2n1	50.1 nM	50.1 nM	7.94 nM	63.1 nM	Intrinsic activity [5]: 0.3; Intrinsic activity [6]: 0.5; Intrinsic activity [10]: 0.5
Cc1ccc2c(OCC3CCN(Cc4ccc5c(c4)NC(=O)CO5)CC3)cccc2n1	> 1580 nM	–	–	–	–
Cc1ccc2c(N3CCN(CCCc4ccc5c(c4)NC(=O)CO5)CC3)cccc2n1	–	–	–	–	Intrinsic activity [5]: 0
Cc1ccc2c(OC3CCN(Cc4ccc5c(c4)NC(=O)CO5)CC3)cccc2n1	> 10000 nM	> 2510 nM	1260 nM	200 nM	–
Cc1ccc2c(OC(C)CN3CCC(Cc4ccc5c(c4)NC(=O)CO5)CC3)cccc2n1 (racemic)	398 nM	200 nM	79.4 nM	251 nM	–
Cc1ccc2c(OCCCN3CC(COc4ccc5c(c4)NC(=O)CO5)C3)cccc2n1	79.4 nM	316 nM	158 nM	–	–
Cc1ccc2c(OCCN3CCC(Cc4ccc5c(c4)NC(=O)CO5)CC3)cccc2n1	–	–	–	–	Intrinsic activity [5]: 0.1; Intrinsic activity [6]: 0.5; Intrinsic activity [10]: 0.5
